Assay results published in patent publication US4933369A, “Dimethyl tyrosyl amide sulfides, sulfoxides and sulfones” (G. D. Searle & Co., priority 1988, dated 1990).

Experiments:
[1] = biological target: opiate receptors isolated from rat brain; experiment: Opiate binding assay (displacement of 3H-Naloxone); conditions: 3H-Naloxone 1NM, rat brain membranes, pH 7.4, 25° C., 60 min
Procedure: (§1) The test compounds were evaluated for their ability to displace the binding of ^3 H-Naloxone to opiate receptors isolated from rat brain. Male rats (Crl:CD)(SD)(BR) obtained from Charles River Laboratories (Portage, Mich.) were sacrificed by cervical dislocation. A purified homogenate of receptor membranes was prepared from the brains according to the method described by Chang and Cuatrecasas. Multiple Opiate Receptors: Enkephalins and Morphine Bind to Receptors of Different Specificity. J. Biol. Chem. 254, 2610-2618 (1979). The brains were homogenized in ten volumes of 0.32 M sucrose and centrifuged twice at 6,000×g for fifteen minutes. Following centrifugation of the supernatants at 40,000×g for thirty minutes, the pellets were resuspended in 5 mM tris HCl, and centrifuged at 6,000×g. The supernatant was centrifuged at 40,000×g. The resuspension in 5 mM tris and centrifugation was repeated twice. The final pellet was resuspended in two volumes of 50 mM tris HCl, (pH 7.4). The homogenate was assayed for protein content according to the method of Itzhaki and Gill (R. E. Itzhaki and D. N. Gill. A Micro-Biuret Method for Estimating proteins Anal. Biochem. 9, 401-410, 1964).
The binding of the test compounds to the receptor membrane preparation was measured using a modification of the method of Pert and Snyder (C. B. Pert and S. H. Snyder. Property of Opiate-Receptor Binding in Rat Brain. Proc. Natl. Acad. Sci. 70, 2243-2247, 1973). The receptor assay was run using a final concentration of 1NM^3 H-Naloxone and 0.5 mg/ml of homogenate protein. Levorphanol (1×10^-5 M) was used as the displacer for non-specific binding. The final concentration of the test compounds was 10^-5 M) The assay was run in 0.05 M tris HCl (pH 7.4). Total assayed volume was 1.0 ml.
(§2) Samples were incubated at 25° C. for sixty minutes, filtered over Whatman GF/C glass fiber filters and rinsed twice with 2.4 ml washes of ice-cold buffer. The filters were air dried at 50° C. for thirty minutes. After drying, 10 ml of PCS was added to the vial and radioactivity determined using a Tracore Analytic Mark III liquid scintillation counter with a counting efficiency of 48%.
The IC50 values, the concentration of the test compounds which inhibited ^3 H-Naloxone specific binding to the opiate receptor by 50%, were obtained from log-logit plots of concentration-response curves.

[2] = system: mouse; experiment: Writhing assay (phenylbenzoquinone-induced writhing, analgesia); assay type: in vivo, Male Charles River albino mice (CD-1/HAM/lLR); design: key: +: The test compound was rated active if the number of writhes in the drug treatment group was significantly less than the number of writhes in the saline treatment group as determined by a one-way analysis of variance; conditions: 30 min before phenylbenzoquinone, initial test dose 2 mg/kg
Procedure: Male Charles River albino mice (CD-1/HAM/lLR) weighing between 20 and 30 grams were used. Thirty minutes after subcutaneous or intragastric administration of the test compound (0.1 ml/10 gm body weight), 0.025% (w/x) phenylbenzoquinone was injected intraperitoneally (0.1 ml/10 gm body weight). Five minutes later, each mouse was placed in a large glass beaker and the number of writhes that occurred in the subsequent ten minutes is counted. A writhe consisted of dorsoflexion of the back, extension of the hind limbs and strong contraction of the abdominal musculature. The test compound was considered to have produced analgesia in a mouse if the number of writhes elicited by phenylbenzoguinone was equal to or less than 1/2 the median number of writhes recorded for the saline-treated group that day. The results were expressed as the number of mice (out of a possible 10) in which the test compound produced analgesia. […] If the initial test dose of 2 mg/kg inhibited writhing in greater than six out of ten mice, the effect of additional doses was evaluated and an ED50 value was calculated using a maximum likelihood function.

[3] = biological target: T1, opiate receptors isolated from rat brain (Rattus norvegicus, UniProt P33535); experiment: Opiate binding assay with (D)Ala^2Glyol^5 Enkephlin as radioactive ligand
T1 construct: A purified homogenate of receptor membranes was prepared from the brains; from tissue; host or cells: brain membranes of male Crl:CD(SD)BR rats (animals from Charles River Laboratories)
T1 sequence (P33535 whole entry): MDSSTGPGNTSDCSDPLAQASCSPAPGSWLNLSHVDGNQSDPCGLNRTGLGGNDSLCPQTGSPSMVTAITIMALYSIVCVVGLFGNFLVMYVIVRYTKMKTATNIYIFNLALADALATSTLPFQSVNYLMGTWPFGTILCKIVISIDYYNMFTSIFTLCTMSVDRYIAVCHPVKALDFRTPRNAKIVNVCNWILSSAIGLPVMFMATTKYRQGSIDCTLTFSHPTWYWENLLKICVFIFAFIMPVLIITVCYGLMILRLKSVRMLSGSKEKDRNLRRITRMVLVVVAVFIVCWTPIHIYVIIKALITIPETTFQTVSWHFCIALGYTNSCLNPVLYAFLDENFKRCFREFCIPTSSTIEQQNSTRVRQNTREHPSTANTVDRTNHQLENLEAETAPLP
Procedure: as §1, with “Male” for “The test compounds were evaluated for their ability to displace the binding of ^3 H-Naloxone to opiate receptors isolated from rat brain. Male”, “The final pellet was resuspended in two volumes of 50 mM tris HCl, (pH 7.4). The homogenate was assayed for protein content according to the method of Itzhaki and Gill (R. E. Itzhaki and D. N. Gill. A Micro-Biuret Method for Estimating proteins Anal. Biochem. 9, 401-410, 1964).” left out
The binding of the test compounds to the receptor membrane preparation was measured using a modification of the method of Pert and Snyder (C. B. Pert and S. H. Snyder. Property of Opiate-Receptor Binding in Rat Brain. Proc. Natl. Acad. Sci. 70, 2243-2247, 1973). […]
as §2, with “The filters were air dried at 50° C. for thirty minutes.” left out, “48%. […]” for “48%.”

## Cc1cc(O)cc(C)c1CC(N)C(=O)NCCCS(=O)(=O)CCc1ccccc1 (racemic) [Example 6, (±)α-amino-4-hydroxy-2,6-dimethyl-N-[3-[(2-phenylethyl)sulfonyl]-propyl]benzenepropanamide]
[1]
  IC50: 0.9 nM

## Cc1cc(O)cc(C)c1CC(N)C(=O)NCCS(=O)(=O)CCCc1ccccc1 (racemic) [Example 3, (±)α-amino-4-hydroxy-2,6-dimethyl-N-[2-[(3-phenylpropyl)sulfonyl]ethyl]benzenepropanamide]
[2]
  ACTIVE (writhing assay, subcutaneous dosing): +
[1]
  IC50: 0.8 nM

## Cc1cc(O)cc(C)c1CC(N)C(=O)NCCCSCCc1ccccc1 (racemic) [Example 5, (±) α-2,6-dimethyl-N-[3-[(2-phenylethyl)thio]propyl]benzenepropanamide]
[2]
  ACTIVE (writhing assay, subcutaneous dosing): +
[3]
  IC50: 3.6 nM

## Cc1cc(O)cc(C)c1C[C@H](N)C(=O)NCCCSc1ccccc1 [Example 9, (L)α-amino-4-hydroxy-2,6-dimethyl-N-[3-(phenylthio)propyl]benzenepropanamide]
[3]
  IC50: 20.9 nM

## Cc1cc(O)cc(C)c1CC(N)C(=O)NCCCSCc1ccccc1 (racemic) [Example 7, (±)α-amino-4-hydroxy-2,6-dimethyl-N-[3-[(phenylmethyl)thio]propyl]benzenepropanamide]
[2]
  ACTIVE (writhing assay, subcutaneous dosing): +
[1]
  IC50: 21 nM

## Cc1cc(O)cc(C)c1CC(N)C(=O)NCCCCSCc1ccccc1 (racemic) [Example 8, (±)α-amino-4-hydroxy-2,6-dimethyl-N-[4-(phenylmethyl)thio]butyl]benzenepropanamide]
[2]
  ACTIVE (writhing assay, subcutaneous dosing): +

## Cc1cc(O)cc(C)c1CC(N)C(=O)NCCSCCCc1ccccc1 (racemic) [Example 2, (±)α-amino-4-hydroxy-2,6-dimethyl-N-[2-[(3-phenylpropyl)thio]ethyl]benzenepropanamide]
[1]
  IC50: 2.2 nM

## Cc1cc(O)cc(C)c1CC(N)C(=O)NCC[S+]([O-])CCCc1ccccc1 (racemic) [Example 4, (±)α-amino-4-hydroxy-2,6-dimethyl-N-[2-[(3-phenylpropyl)sulfinyl]ethyl]benzenepropanamide]
[2]
  ACTIVE (writhing assay, subcutaneous dosing): +
[1]
  IC50: 2.8 nM
